According to publication PMC7004565, “Nucleotide inhibition of the pancreatic ATP-sensitive K^+ channel explored with patch-clamp fluorometry” (eLife, 2020):
Like-named read-outs stand apart in the source and are kept apart here.

Tests used:
Kir6.2*-GFP + SUR-K205A = biological target: T1, Kir6.2*-GFP + SUR-K205A (Homo sapiens, UniProt Q14654); experiment: Bayesian MWC-type model fits to combined patch-clamp fluorometry data; assay type: biochemical; conditions: for Kd: read-out: KA (intrinsic binding affinity to the closed state) (converted)
T1 construct: ANAP labelling is specific and only full-length Kir6.2 is expressed at the cell membrane; expressed in transfected cells; host or cells: HEK-293T
T1 sequence (Q14654 whole entry, stated change not applied): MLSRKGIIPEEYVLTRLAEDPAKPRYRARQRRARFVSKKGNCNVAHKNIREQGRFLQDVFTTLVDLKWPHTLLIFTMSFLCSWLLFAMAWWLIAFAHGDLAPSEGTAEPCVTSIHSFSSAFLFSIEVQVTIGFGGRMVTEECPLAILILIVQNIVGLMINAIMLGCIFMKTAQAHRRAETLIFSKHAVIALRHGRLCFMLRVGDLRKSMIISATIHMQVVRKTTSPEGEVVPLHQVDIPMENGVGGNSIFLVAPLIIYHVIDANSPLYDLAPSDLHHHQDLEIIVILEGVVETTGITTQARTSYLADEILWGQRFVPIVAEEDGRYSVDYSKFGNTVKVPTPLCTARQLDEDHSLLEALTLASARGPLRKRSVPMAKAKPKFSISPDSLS
T1 sequence (Q09428 whole entry K205A partner): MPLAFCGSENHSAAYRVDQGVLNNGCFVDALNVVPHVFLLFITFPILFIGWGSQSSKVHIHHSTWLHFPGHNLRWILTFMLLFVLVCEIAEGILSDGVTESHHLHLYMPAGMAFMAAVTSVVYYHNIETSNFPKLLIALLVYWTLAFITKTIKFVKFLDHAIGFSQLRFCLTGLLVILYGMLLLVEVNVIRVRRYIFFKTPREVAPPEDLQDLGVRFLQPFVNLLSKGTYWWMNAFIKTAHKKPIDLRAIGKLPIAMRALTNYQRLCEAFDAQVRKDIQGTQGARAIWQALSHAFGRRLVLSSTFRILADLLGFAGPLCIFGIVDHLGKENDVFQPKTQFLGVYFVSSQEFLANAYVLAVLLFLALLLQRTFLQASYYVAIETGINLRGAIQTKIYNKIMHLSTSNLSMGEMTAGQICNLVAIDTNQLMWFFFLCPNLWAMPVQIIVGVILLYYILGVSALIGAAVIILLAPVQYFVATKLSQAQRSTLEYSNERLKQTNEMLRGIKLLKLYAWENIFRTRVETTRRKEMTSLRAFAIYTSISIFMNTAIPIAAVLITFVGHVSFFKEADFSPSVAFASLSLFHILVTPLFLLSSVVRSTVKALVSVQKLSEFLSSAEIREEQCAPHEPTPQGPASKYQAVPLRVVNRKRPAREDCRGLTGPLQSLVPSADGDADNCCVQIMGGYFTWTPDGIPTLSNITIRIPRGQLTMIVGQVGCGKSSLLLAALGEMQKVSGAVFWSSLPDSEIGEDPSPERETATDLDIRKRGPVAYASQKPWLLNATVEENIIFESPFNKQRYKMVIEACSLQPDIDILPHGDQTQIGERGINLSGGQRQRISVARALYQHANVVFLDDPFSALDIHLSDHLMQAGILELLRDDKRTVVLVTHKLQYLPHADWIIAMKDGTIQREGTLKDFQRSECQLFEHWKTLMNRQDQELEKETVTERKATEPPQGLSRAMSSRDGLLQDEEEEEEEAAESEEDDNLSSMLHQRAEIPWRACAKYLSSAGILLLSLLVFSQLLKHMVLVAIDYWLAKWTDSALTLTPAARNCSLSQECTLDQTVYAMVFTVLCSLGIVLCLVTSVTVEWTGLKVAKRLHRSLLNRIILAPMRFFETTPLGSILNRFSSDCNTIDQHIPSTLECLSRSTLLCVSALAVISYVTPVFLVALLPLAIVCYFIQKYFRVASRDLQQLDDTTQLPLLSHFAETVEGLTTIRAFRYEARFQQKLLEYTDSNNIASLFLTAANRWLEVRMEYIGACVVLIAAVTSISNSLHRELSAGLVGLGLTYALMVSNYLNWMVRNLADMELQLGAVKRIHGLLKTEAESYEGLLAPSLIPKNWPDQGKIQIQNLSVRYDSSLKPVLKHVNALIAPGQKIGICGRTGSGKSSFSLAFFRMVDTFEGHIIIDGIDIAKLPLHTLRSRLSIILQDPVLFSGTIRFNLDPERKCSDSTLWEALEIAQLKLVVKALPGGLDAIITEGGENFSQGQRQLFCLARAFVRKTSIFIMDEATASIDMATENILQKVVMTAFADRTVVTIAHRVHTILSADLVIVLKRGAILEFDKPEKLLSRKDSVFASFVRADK
Description: (§1) Our simultaneous binding and current measurements were well fit with a Monod-Wyman-Changeux (MWC)-type model (Figure 2D,E; [Monod et al., 1965]) which has been previously proposed to explain KATP channel inhibition ([Enkvetchakul and Nichols, 2003]; [Craig et al., 2008]; [Vedovato et al., 2015]). In our MWC-type model, each ligand binding event ( KA ) is independent and each bound ligand favours the closed state by the same factor ( D ). Simultaneous measurement of binding (fluorescence) and gating (current) allowed us to obtain well constrained fits to our model. To obtain free parameter ( L , KA , D ) estimates and verify that each parameter was well and uniquely determined, we employed a Bayesian Markov chain Monte Carlo (MCMC) method previously employed by [Hines et al. (2014)]. Using this approach, we constructed posterior probability distributions for the free parameters of our MWC-type model (Figure 2F, Table 3). […] Our estimate of L was quite low and broadly distributed. We repeated our fits with L fixed to a value consistent with previous single channel measurements (0.8, Popen=0.45; [John et al., 1998]; [Enkvetchakul et al., 2000]; [Ribalet et al., 2006]). This had only a very small effect on our estimates of D and KA (Figure 2—figure supplement 1). The broad distribution of L in our fit may represent current rundown which occurs during our patch-clamp recordings and is expected to affect the open-closed equilibrium.
(§2) In addition to the full MWC-type model we considered alternate models (Figure 2—figure supplement 2). These included a model in which only the first binding event influences the open-closed equilibrium of the channel (single-binding model; Figure 2—figure supplement 2B, Table 3), and an MWC-style model with an additional parameter C to allow for direct negative cooperativity between binding sites (negative cooperativity model; Figure 2—figure supplement 2C, Table 3). The single-binding model yielded very similar parameter estimates to our full MWC-type model (Figure 2—figure supplement 2D, Table 3). This is a consequence of D being so low that even in the MWC-type model most channels are closed when only a single nucleotide is bound. The cooperative model improved our fits, but not enough to justify the inclusion of an additional free parameter (see Discussion).
(§3) The MWC-type models considered (Figure 2 and Figure 2—figure supplement 2) were formulated as follows:(3) F/Fmax=KA[TNPATP](1+KA[TNPATP])^3+LDKA[TNPATP](1+DKA[TNPATP])^3/(1+KA[TNPATP])^4+L(1+DKA[TNPATP])^4 (4) open channels/total channels=L(1+DKA[TNPATP])^4/(1+KA[TNPATP])^4+L(1+DKA[TNPATP])^4
(§4) The first was similar to the MWC-type model, except that the channels close after one molecule of TNP-ATP binding with subsequent binding events having no effect.(7) F/Fmax=LDKA[TNPATP](1+3KA[TNPATP]+3KA2[TNPATP]^2+KA3[TNPATP]^3)+KA[TNPATP](1+KA[TNPATP])^3/L(1+4DKA[TNPATP]+6DKA2[TNPATP]^2+4DKA3[TNPATP]^3+DKA4[TNPATP]^4)+(1+KA[TNPATP])^4 (8) I/Imax=L(1+4DKA[TNPATP]+6DKA2[TNPATP]^2+4DKA3[TNPATP]^3+DKA4[TNPATP]^4)/L(1+4DKA[TNPATP]+6DKA2[TNPATP]^2+4DKA3[TNPATP]^3+DKA4[TNPATP]^4)+(1+KA[TNPATP])^4⋅1+L/L
(§5) The second alternate model was the same as the full MWC model, but with an additional term C describing binding cooperativity between Kir6.2 subunits.(9) F/Fmax=LDKA[TNPATP](1+3CDKA[TNPATP]+3C^2D^2KA2[TNPATP]^2+C^3D^3KA3[TNPATP]^3)+KA[TNPATP](1+3CKA[TNPATP])+3C^2KA2[TNPATP]^2+C^3KA3[TNPATP]^3)/L(1+4DKA[TNPATP]+6CD^2KA2[TNPATP]^2+4C^2D^3KA3[TNPATP]^3+C^3D^4KA4[TNPATP]^4)+1+4KA[TNPATP]+6CKA2[TNPATP]^2+4C^2KA3[TNPATP]^3+C^3KA4[TNPATP]^4 (10) I/Imax=L(1+4DKA[TNPATP]+6CD^2KA2[TNPATP]^2+4C^2D^3KA3[TNPATP]^3+C^3D^4KA4[TNPATP]^4)/L(1+4DKA[TNPATP]+6CD^2KA2[TNPATP]^2+4C^2D^3KA3[TNPATP]^3+C^3D^4KA4[TNPATP]^4)+1+4KA[TNPATP]+6C^2KA2[TNPATP]^2+4C^2KA3[TNPATP]^3+C^3KA4[TNPATP]^4⋅1+L/L […]

Kir6.2*-GFP + SUR-K205E = biological target: T2, Kir6.2*-GFP + SUR-K205E (Homo sapiens, UniProt Q14654); experiment: as above; assay type: biochemical; conditions: for Kd: read-out: KA (intrinsic binding affinity to the closed state) (converted)
T2 construct: ANAP labelling is specific and only full-length Kir6.2 is expressed at the cell membrane; expressed in transfected cells; host or cells: HEK-293T
T2 sequence (Q14654 whole entry, stated change not applied): as the sequence (Q14654 whole entry, stated change not applied) above
T2 sequence (Q09428 whole entry K205E partner): as the sequence (Q09428 whole entry K205A partner) above, with A205E counted along it
Description: as §1, §2, §3, §4, §5

[1] = Full MWC model, median estimate
[2] = Single-site (single-binding) model

## Nc1ncnc2c1ncn2[C@@H]1O[C@H](COP(=O)(O)OP(=O)(O)OP(=O)(O)O)[C@H]2OC3(O[C@H]21)C([N+](=O)[O-])=CC(=[N+]([O-])[O-])C=C3[N+](=O)[O-] (stereo partly shown) [TNP-ATP, trinitrophenyl-ATP]
Kir6.2*-GFP + SUR-K205A; [1]
  D (factor by which nucleotide binding favours channel closure): 0.55
  L (unliganded open-closed equilibrium constant): −0.37 log10
  Kd: 174 µM
Kir6.2*-GFP + SUR-K205A; Negative cooperativity model
  C (binding cooperativity between Kir6.2 subunits): 0.35
  D (factor by which nucleotide binding favours channel closure): 0.52
  L (unliganded open-closed equilibrium constant): −0.16 log10
  Kd: 79.4 µM
Kir6.2*-GFP + SUR-K205A; [2]
  D (factor by which nucleotide binding favours channel closure): 0.18
  L (unliganded open-closed equilibrium constant): −0.25 log10
  Kd: 240 µM
Kir6.2*-GFP + SUR-K205E; [1]
  D (factor by which nucleotide binding favours channel closure): 0.62
  L (unliganded open-closed equilibrium constant): −0.18 log10
  Kd: 398 µM
Kir6.2*-GFP + SUR-K205E; Negative cooperativity model
  C (binding cooperativity between Kir6.2 subunits): 0.45
  D (factor by which nucleotide binding favours channel closure): 0.58
  Kd: 195 µM
Kir6.2*-GFP + SUR-K205E; [2]
  D (factor by which nucleotide binding favours channel closure): 0.30
  L (unliganded open-closed equilibrium constant): −0.19 log10
  Kd: 490 µM
